Data set [1] is described as follows: Effect of H2O2 on the fluorescence of Nile red. As to conditions: 72 h incubation with 1 mM hydrogen peroxide. The format is physicochemical. As for the experimental part: The fluorescence of the dye was quenched in aqueous environments, enabling use as a model compound to indicate small molecule release from the hydrophobic nanoparticle interior. Prior to the evaluation of controlled release from our materials, the stability of Nile Red fluorescence in hydrogen peroxide was tested to ensure that the fluorescence quenching observed is not a result of Nile Red exposure to hydrogen peroxide.
Nile red solutions of three different concentrations in acetone were prepared (10, 40, 160 ng/mL). Polymer 1 was dissolved in the Nile red solutions (polymer concentration in all Nile red solutions were constant at 125 μg/mL). Hydrogen peroxide was added to these solutions (concentration in Nile red solutions was constant at 1 mM). Changes in Nile red fluorescence were monitored over a 72 h period using the same instrument settings as reported previously. These experiments were run in duplicate.

For data set [2] the following is noted: cited from earlier work.
The subject of the next data set is dMPRO cells. Kind of data set: Extracellular hydrogen peroxide produced by neutrophils. The format is cell-based, mouse. As to conditions: 1.6×10^6 dMPRO cells, after 6 h of PMA treatment. As for the experimental part:
Activated neutrophils generate high ROS. Extracellular hydrogen peroxide produced by neutrophils (differentiated mouse promyleocytes or dMPRO cells) with and without PMA (phorbol 12 myristate 13 acetate) stimulation was measured.
After 6 h of PMA treatment, 1.6×10^6 dMPRO cells produced 6.5 μM H2O2, while untreated cells produced 4.5 μM H2O2. These extracellular levels of H2O2 were much lower than the levels previously seen for Polymer 2, however the concentration of H2O2 inside neutrophil granules appear to be much higher. Fluorescein diacetate (FDA), a non-fluorescent molecule which is cleaved to fluorescein (Ex490/Em520) by cellular esterases, was chosen for the release assay.

In the next data set the test system is Raw264.7 macrophages. In words: ApoTox-Glo assay of viability, cytotoxicity and apoptosis. As to conditions: staurosporine 5 μM for 5 h; Triton X-100 0.1% for 15 min. As for the experimental part:
In addition, this assay also measures caspase 3/7 activity as a readout for apoptosis (see, FIGS. 7A-7D). […] Staurosporine and 0.1% Triton-X 100 were used as positive controls for induction of apoptosis and cell death, respectively.
Raw264.7 cells were seeded on a 96-well plate at a density of 15000 cells per well. […] The particles were incubated for 5, 24 and 48 h.
Apoptosis (positive control) was induced by addition of staurosporine (5 μM final concentration), followed by incubation for at 37° C. for 5 h. Cytotoxicity (positive control) was induced by addition of triton X-100 (0.1% final concentration), followed by incubation at 37° C. for 15 min. Viability, cytotoxicity and apoptosis were measured using ApoTox-Glo™ assay (Promega) as per manufacturer's protocol. Datasets for each concentration and controls were collected in quadruplicates.

Where only a bound is given, the exact number is not on record here.

For the molecule `CCN(CC)c1ccc2nc3c4ccccc4c(=O)cc-3oc2c1` [Nile red], in data set [1], the “change of Nile Red fluorescence” value was “did not change significantly”. In addition, the “solubility in aqueous media” value in data set [2] was less than 1 µg/mL.

For `CCCCCCCCCCCCCC(=O)O[C@@H]1[C@@H](C)[C@@]2(O)[C@@H](C=C(CO)C[C@]3(O)C(=O)C(C)=C[C@@H]23)[C@@H]2C(C)(C)[C@]12OC(C)=O` [PMA, phorbol 12 myristate 13 acetate], the “extracellular H2O2 produced” value in the data set with dMPRO cells stood at 6.5 µM.

On to `CN[C@@H]1C[C@H]2O[C@@](C)([C@@H]1OC)n1c3ccccc3c3c4c(c5c6ccccc6n2c5c31)C(=O)NC4` [staurosporine], for which the “apoptosis and cell viability, positive controls” value with Raw264.7 macrophages is “apoptosis and loss of cell viability was observed”.

Consider Triton X-100, for which the “apoptosis and cell viability, positive controls” value with Raw264.7 macrophages is “apoptosis and loss of cell viability was observed”.

The values are drawn from patent publication US9333264B2, “Biocompatible polymeric nanoparticles degrade and release cargo in response to biologically relevant levels of hydrogen peroxide” (The Regents of the University of California, priority 2013, dated 2016).
